Legend:
HepG2 = test: Cytotoxicity against human HepG2 cells assessed as reduction in cell viability incubated for 48 hrs by MTT assay; assay type: functional, cell-based; conditions: HepG2, 48 h
ECa-109 cell line = test: Cytotoxicity against human ECa-109 cells assessed as reduction in cell viability incubated for 48 hrs by MTT assay; assay type: functional, cell-based; conditions: ECa-109, 48 h
SGC-7901 = test: Cytotoxicity against human SGC-7901 cells assessed as reduction in cell viability incubated for 48 hrs by MTT assay; assay type: functional, cell-based; conditions: SGC-7901, 48 h
HeLa = test: Cytotoxicity against human HeLa cells assessed as reduction in cell viability incubated for 48 hrs by MTT assay; assay type: functional, cell-based
L02 = test: Cytotoxicity against human HL7702 cells assessed as reduction in cell viability incubated for 48 hrs by MTT assay; assay type: ADME, cell-based; conditions: L02, 48 h
[1] = Selectivity index, ratio of IC50 for cytotoxicity against human HL7702 cells to IC50 for cytotoxicity against human SGC-7901 cells
[2] = Selectivity index, ratio of IC50 for cytotoxicity against human HL7702 cells to IC50 for cytotoxicity against human ECa-109 cells

Row | SMILES | IC50 (HepG2) [µM] | IC50 (ECa-109 cell line) [µM] | IC50 (SGC-7901) [µM] | IC50 (HeLa) [µM] | IC50 (L02) [µM] | Ratio IC50 [1] | Ratio IC50 [2]
1 | COc1ccc(CCn2n[n+](C)c3c2C(C)(C)[C@@H]2CC[C@]4(C)[C@H](CC[C@@H]5[C@H]6[C@H]7OC[C@@]6(CCC7(C)C)CC[C@]54C)[C@@]2(C)C3)cc1 | 2.91 | 1.97 | 2.39 | 2.85 | 2.09 |  | 
2 | CC1(C)CC[C@]23CC[C@]4(C)[C@H](CC[C@@H]5[C@@]6(C)Cc7nnn(Cc8ccc(Cl)c(Cl)c8)c7C(C)(C)[C@@H]6CC[C@]54C)[C@H]2[C@H]1OC3 | 53.9 | 43.6 | 44.5 | 32.6 | 35.5 |  | 
3 | C[n+]1nn(Cc2ccc(F)cc2)c2c1C[C@]1(C)[C@H]3CC[C@@H]4[C@H]5[C@H]6OC[C@@]5(CCC6(C)C)CC[C@@]4(C)[C@]3(C)CC[C@H]1C2(C)C | 2.89 | 3.06 | 3.02 | 3.03 | 2.2 |  | 
4 | C[n+]1nn(Cc2ccc(Cl)c(Cl)c2)c2c1C[C@]1(C)[C@H]3CC[C@@H]4[C@H]5[C@H]6OC[C@@]5(CCC6(C)C)CC[C@@]4(C)[C@]3(C)CC[C@H]1C2(C)C | 2.96 | 3.03 | 2.99 | 2.83 | 2.29 |  | 
5 | COc1cccc(CCn2nnc3c2C(C)(C)[C@@H]2CC[C@]4(C)[C@H](CC[C@@H]5[C@H]6[C@H]7OC[C@@]6(CCC7(C)C)CC[C@]54C)[C@@]2(C)C3)c1 | 31.9 | 25.5 | 39.8 | 23.6 | 20.9 |  | 
6 | C[n+]1nn(Cc2ccccc2F)c2c1C[C@]1(C)[C@H]3CC[C@@H]4[C@H]5[C@H]6OC[C@@]5(CCC6(C)C)CC[C@@]4(C)[C@]3(C)CC[C@H]1C2(C)C | 2.99 | 3.08 | 2.56 | 2.42 | 1.68 |  | 
7 | C[n+]1nn(Cc2ccccc2)c2c1C[C@]1(C)[C@H]3CC[C@@H]4[C@H]5[C@H]6OC[C@@]5(CCC6(C)C)CC[C@@]4(C)[C@]3(C)CC[C@H]1C2(C)C | 2.89 | 3.29 | 2.83 | 3.02 | 2 |  | 
8 | CC1(C)CC[C@]23CC[C@]4(C)[C@H](CC[C@@H]5[C@@]6(C)Cc7nnn(Cc8cccc(Cl)c8)c7C(C)(C)[C@@H]6CC[C@]54C)[C@H]2[C@H]1OC3 | 30.7 | 36.5 | 31.5 | 34.4 | 26.3 |  | 
9 | COc1cccc(CCn2n[n+](C)c3c2C(C)(C)[C@@H]2CC[C@]4(C)[C@H](CC[C@@H]5[C@H]6[C@H]7OC[C@@]6(CCC7(C)C)CC[C@]54C)[C@@]2(C)C3)c1 | 2.72 | 2.06 | 2.37 | 2.87 | 2.21 |  | 
10 | COc1cccc(Cn2nnc3c2C(C)(C)[C@@H]2CC[C@]4(C)[C@H](CC[C@@H]5[C@H]6[C@H]7OC[C@@]6(CCC7(C)C)CC[C@]54C)[C@@]2(C)C3)c1 | 12.7 | 10.4 | 12 | 11.2 | 10.5 |  | 
11 | COC(Cn1n[n+](C)c2c1C(C)(C)[C@@H]1CC[C@]3(C)[C@H](CC[C@@H]4[C@H]5[C@H]6OC[C@@]5(CCC6(C)C)CC[C@]43C)[C@@]1(C)C2)OC | 6.33 | 5.53 | 6.67 | 5.39 | 4.1 |  | 
12 | CC1(C)CC[C@]23CC[C@]4(C)[C@H](CC[C@@H]5[C@@]6(C)Cc7nnn(Cc8ccccc8)c7C(C)(C)[C@@H]6CC[C@]54C)[C@H]2[C@H]1OC3 | 59.4 | 53.2 | 55.7 | > 80 | 38.5 |  | 
13 | COc1ccc(Cn2n[n+](C)c3c2C(C)(C)[C@@H]2CC[C@]4(C)[C@H](CC[C@@H]5[C@H]6[C@H]7OC[C@@]6(CCC7(C)C)CC[C@]54C)[C@@]2(C)C3)cc1 | 2.86 | 2.78 | 2.01 | 2.48 | 2.24 |  | 
14 | COc1cccc2c1C(=O)c1c(O)c3c(c(O)c1C2=O)C[C@@](O)(C(=O)CO)C[C@@H]3O[C@H]1C[C@H](N)[C@H](O)[C@H](C)O1 [DOXORUBICIN] |  | 2.06 | 1.53 | 1.07 | 0.94 | 0.61 | 0.46
15 | Cc1ccc(Cn2nnc3c2C(C)(C)[C@@H]2CC[C@]4(C)[C@H](CC[C@@H]5[C@H]6[C@H]7OC[C@@]6(CCC7(C)C)CC[C@]54C)[C@@]2(C)C3)cc1 | 26.6 | 34.8 | 20.3 | 32.3 | 22.7 |  | 
16 | C[n+]1nn(Cc2ccc(Cl)cc2)c2c1C[C@]1(C)[C@H]3CC[C@@H]4[C@H]5[C@H]6OC[C@@]5(CCC6(C)C)CC[C@@]4(C)[C@]3(C)CC[C@H]1C2(C)C | 1.73 | 2.16 | 2.68 | 2.45 | 1.62 |  | 
17 | COc1ccc(CCn2nnc3c2C(C)(C)[C@@H]2CC[C@]4(C)[C@H](CC[C@@H]5[C@H]6[C@H]7OC[C@@]6(CCC7(C)C)CC[C@]54C)[C@@]2(C)C3)cc1 | 36.6 | 51.8 | 45.2 | 42.5 | 39.3 |  | 
18 | COc1ccccc1CCn1nnc2c1C(C)(C)[C@@H]1CC[C@]3(C)[C@H](CC[C@@H]4[C@H]5[C@H]6OC[C@@]5(CCC6(C)C)CC[C@]43C)[C@@]1(C)C2 | 32.8 | 34.9 | 38.6 | 33.9 | 31.9 |  | 
